test: ORAC (Oxygen Radical Absorbance Capacity) assay for lipophilic antioxidants; conditions: samples 0.25 μM, 7% RMCD, fluorescein probe
Procedure: An ORAC (Oxygen Radical Absorbance Capacity) assay was carried out using a Fluostar Optima plate reader (BMG Labtech, Durham, N.C.) equipped with an incubator and two injector pumps. A modified method for lipophilic antioxidants was followed, in which randomly methylated cyclodextrin (RMCD) was used as water solubility enhancer, as described by Huang et al, J. Agric. Food Chem., 2002, 50, 1815-1821. Trolox standards (6.25-50 μM) and samples (0.25 μM) were dissolved in acetone/water (1:1, v/v) containing 7% RMCD. Fluorescein and […] [2,2′-azobis(2-aminopropane)dihydrochloride] were used as the probe and radical generator, respectively. Twenty microliters of trolox standard or test compound solutions (7% RMCD used as a control) were added into each well of a 96-well black microplate, followed by addition of fluorescein. The plate was incubated at 37° C. for 15 min and then AAPH in buffer was injected into the wells. The conditions used were as follows: 0.3 s position delay, 8 s orbital shaking before each cycle with 4 mm width, 210 s cycle time, and 25 cycles. Fluorescence was measured at an excitation wavelength of 485 nm and emission of 520 nm. A standard curve was plotted and ORAC values for test compounds were obtained as mol of trolox equivalents (TE) per mol of test compound. (3b) Reducing Power The reducing power of EGCG and its derivatives (compounds 1a-1c) was determined according to Oyaizu (1986). One milliliter of test compounds (1 mM in 95% ethanol) was mixed with 2.5 ml of phosphate buffer solution (PBS, 0.2 M, pH 6.6) and 2.5 ml of a 1% solution of potassium ferricyanide, K3Fe(CN)6. The mixture was incubated at 50° C. for 20 min. […] The content was mixed well and the absorbance was recorded at 700 nm. Higher absorbance of the reaction mixture indicates greater reducing power. […] (3c) Metal Chelation The metal chelation capacity was measured following a procedure by Decker E. A. et al., J. Agric. […] The absorbance was measured afterwards at 562 nm. A blank without ferrozine was run for each compound, since the antioxidant-Fe^2+ complex gives a colour that might interfere with the absorbance reading. Metal chelation capacity was calculated using the following equation: % chelation=[1−(Abs.sample−Abs.blank)/Abs.control]×100 where, control was devoid of test compounds, while blank contained no ferrozine. (3d) DPPH Antioxidant activity of the lipophilic EGCG derivatives was ALSO evaluated as DPPH (1,1-diphenyl-2-picrylhydrazyl) radical scavenging capacity using EGCG as the reference. DPPH scavenging capacity of test compounds was determined by EPR (electron paramagnetic resonance) according to Madhujith and Shahidi (16) with slight modifications. […] The spectrum was recorded after 1 min. […]

Structure (SMILES) | ORAC
CCC=CCC=CCC=CCC=CCC=CCCCC(=O)Oc1cc(C(=O)OC2Cc3c(O)cc(O)cc3OC2c2cc(OC(=O)CCCC=CCC=CCC=CCC=CCC=CCC)c(O)c(OC(=O)CCCC=CCC=CCC=CCC=CCC=CCC)c2)cc(OC(=O)CCCC=CCC=CCC=CCC=CCC=CCC)c1O (stereo not shown) [Compound 1b] | 81.52 mol trolox eq./mol
O=C(O[C@@H]1Cc2c(O)cc(O)cc2O[C@@H]1c1cc(O)c(O)c(O)c1)c1cc(O)c(O)c(O)c1 [EGCG, Epigallocatechin gallate, reference compound] | 14.97 mol trolox eq./mol
CCC=CCC=CCC=CCC=CCC=CCC=CCCC(=O)Oc1cc(C(=O)OC2Cc3c(O)cc(O)cc3OC2c2cc(OC(=O)CCC=CCC=CCC=CCC=CCC=CCC=CCC)c(O)c(OC(=O)CCC=CCC=CCC=CCC=CCC=CCC=CCC)c2)cc(OC(=O)CCC=CCC=CCC=CCC=CCC=CCC=CCC)c1O (stereo not shown) [Compound 1c] | 84.70 mol trolox eq./mol
CCCCCCCCCCCCCCCCCC(=O)Oc1cc(C(=O)OC2Cc3c(O)cc(O)cc3OC2c2cc(OC(=O)CCCCCCCCCCCCCCCCC)c(O)c(OC(=O)CCCCCCCCCCCCCCCCC)c2)cc(OC(=O)CCCCCCCCCCCCCCCCC)c1O (stereo not shown) [Compound 1a, EGCG stearate] | 51.56 mol trolox eq./mol

From patent publication US9018248B2, “Fatty acid derivatives of catechins and methods of their use” (Genesis Group Inc., priority 2010, dated 2015)
